From patent US20080026362A1, “Three-dimensional culture containing human articular chondrocytes with induced terminal differentiation changes, and preparation process and uses of the same” (Kaohsiung Medical University, priority 2006, published 2008)

Columns and labels:
Assay type in all cases: cell-based
[1] = tested on: collagen type II gene; assay: RT-PCR, mRNA expression of collagen type II in alginate-bead human articular chondrocytes (NHAC-kn); conditions: p<0.01
Procedure: (§1) The alginate beads were prepared with reference to C. Sanchez et al. (2002), J. Rheumatol, 29:772-82. Briefly, the above-described human articular chondrocyte cultures were suspended in a 1.2% alginate solution in 0.9% NaCl, so as to form a cell suspension at a density of 1×10^6 cells/mL. The cell suspension was then slowly dropped into a 102 mM CaCl2 solution through a yellow pipette tip, to result in the formation of alginate beads entrapping the human articular chondrocytes. The thus-formed alginate beads were allowed to polymerize for further 10 minutes in the CaCl2 solution at room temperature.
(§2) After washing with saline solution, 15 alginate beads were cultivated in 5 ml of culture medium per well in a 6-well plate. […]
(§3) The NHAC-kn cultures were used in the following experiments except the quantitative real-time polymerase chain reaction (quantitative real-time PCR). The KMU-AC cultures were used to quantify mRNA expression by quantitative real-time PCR, which was performed to further confirm the effect of Aza-C on gene expression of human articular chondrocytes.
(§4) On Day 3, 7 and 14 after a 48 hr Aza-C treatment, expressions of the mRNA of type II and type X collagens and alkaline phosphatase (ALP) of Aza-C-treated and non-treated cells (control) were measured by RT-PCR. […]

[2] = tested on: collagen type X gene; assay: RT-PCR, mRNA expression of collagen type X in alginate-bead human articular chondrocytes (NHAC-kn); conditions: p<0.01
Procedure: as §1
(§5) After washing with saline solution, 15 alginate beads were cultivated in 5 ml of culture medium per well in a 6-well plate. Culture medium was the Chondrocyte basal medium (Bulletkit, Clonic®; BioWhittaker, Walkersville, Md.) with a supplement of the Chondrocyte growth medium, containing R3-IGF1, bFGF, transferrin, insulin, fetal bovine serum and gentamicin/amphotericin-B (SingleQuots, Clonic®; BioWhittaker, Walkersville, Md.). The alginate beads were cultured for 7 days at 37° C. in a humidified incubator with 5% CO2 and the culture medium was changed every 3 days. […]
as §3, §4
The thus-obtained PCR products (amplicons) were resolved by electrophoresis on a 1.4% agarose gel and visualised by ethidium bromide staining. The optical densities of the resolved bands were semi-quantified using a Bioimaging System (UVP Inc., Upland, Calif.). […] The optical intensity ratios of the PCR products to the 18S rRNA gene were calculated for comparison.

[3] = tested on: alkaline phosphatase (ALP) gene; assay: RT-PCR, mRNA expression of alkaline phosphatase in alginate-bead human articular chondrocytes (NHAC-kn); conditions: p<0.01
Procedure: as §1, §2, §3, §4

[4] = tested on: collagen type II gene; assay: Quantitative real-time PCR, mRNA expression of collagen type II in human articular chondrocytes (KMU-AC); conditions: normalized to GAPDH, control Day 3 = 100%, mean ± S.E.M.
Procedure: as §1
as §5, with “Md.).” for “Md.). The alginate beads were cultured for 7 days at 37° C. in a humidified incubator with 5% CO2 and the culture medium was changed every 3 days.”
as §3
(§6) Quantitative real-time PCR was also performed to further confirm the finding from RT-PCR. On Day 3, 7 and 14 after a 48 hr Aza-C treatment, the mRNA expressions of type II and type X collagens and ALP of Aza-C treated and control cells were measured. […]
(§7) The quantitative real-time PCR was performed in an ABI Prism 7900 HT Sequence Detection System (Applied Biosystems, Foster City, Calif.) using the SYBR Green PCR Master Mix Reagent containing the Amplitag Gold DNA polymerase, dNTP mixed with dUTP, SYBR Green 1, passive reference and reaction buffer (Applied Biosystems, Foster City, Calif.). […]

[5] = tested on: collagen type X gene; assay: Quantitative real-time PCR, mRNA expression of collagen type X in human articular chondrocytes (KMU-AC); conditions: normalized to GAPDH, control Day 3 = 100%, mean ± S.E.M.
Procedure: as §1, with “temperature. […]” for “temperature.”
as §3, §6
The thus-obtained PCR products (amplicons) were detected by the fluorescence of SYBR Green, the double stranded DNA binding dye (T. B. Morrison et al. (1998), Biotechniques, 24:954-958, 960, 962). […]

[6] = tested on: ALP gene; assay: Quantitative real-time PCR, mRNA expression of ALP in human articular chondrocytes (KMU-AC); conditions: normalized to GAPDH, control Day 3 = 100%, mean ± S.E.M.
Procedure: as §1
as §5, with “Md.).” for “Md.). The alginate beads were cultured for 7 days at 37° C. in a humidified incubator with 5% CO2 and the culture medium was changed every 3 days.”
as §3, §6, §7

[7] = tested on: human articular chondrocytes; assay: Flow cytometry, cell size of articular chondrocytes; conditions: Day 14 after 48 hr 15 μg/mL Aza-C, NHAC-kn
Procedure: (§8) The cultivated alginate beads as described above were treated with 15 μg/mL of 5-azacytidine (Sigma, St Louis, Mo.) for 48 hours. Thereafter, they were maintained in media without Aza-C for another 2 weeks. Cells were harvested on Day 3, 7 and 14 after Aza-C treatment, respectively. The control cultures were cultivated and harvested under the same conditions except that the treatment of Aza-C was omitted.
(§9) Human articular chondrocytes were released from the alginate beads by dissolving the beads in a 0.9% NaCl solution containing 0.05M sodium citrate and 0.03M sodium EDTA at pH 7.4. Cells for each experiment were collected by low-speed centrifugation at 1,000 rpm for 5 min.
as §3
The cell size of articular chondrocytes from the control and Aza-C treated cultures was analysed by flow cytometry on Day 14 after the Aza-C treatment. […] Cells (1×10^6) were then suspended in phosphate buffered saline and analysed immediately on a laser flow cytometer (EPICS Elite; Coulter, Hialeah, Fla.). […]

[8] = tested on: human articular chondrocytes; assay: TUNEL assay, apoptotic rate of chondrocytes; conditions: Day 14 after 48 hr 15 μg/mL Aza-C; NHAC-kn; p<0.01
Procedure: as §8, §9, §3
Fragmented DNA of an apoptotic cell was TUNEL stained using an In Situ Cell Death Detection Kit, TMR red (Roche, Germany). […] Slides were observed on a fluorescence microscope with an excitation wavelengthof 580 nm for rhodamine and 365 nm for DAPI. […] Stained cells were counted in 5 microscopic fields for each slide. […]

[9] = Day 7 after 48 hr treatment with 15 μg/ml Aza-C
[10] = Day 14 after 48 hr treatment with 15 μg/ml Aza-C
[11] = Day 3 after 48 hr 15 μg/mL Aza-C
[12] = Day 7 after 48 hr 15 μg/mL Aza-C
[13] = Day 14 after 48 hr 15 μg/mL Aza-C

Nc1ncn([C@@H]2O[C@H](CO)[C@@H](O)[C@H]2O)c(=O)n1 [Aza-C, 5-azacytidine]
mRNA expression of collagen type II gene (RT-PCR, normalized to 18S rRNA) vs control group [1, 9]: significantly decreased | mRNA expression of collagen type II gene (RT-PCR, normalized to 18S rRNA) vs control group [1, 10]: significantly decreased | mRNA expression of collagen type X gene (RT-PCR, normalized to 18S rRNA) vs control group ([2]; Day 3 after 48 hr treatment with 15 μg/ml Aza-C): significantly increased | mRNA expression of collagen type X gene (RT-PCR, normalized to 18S rRNA) vs control group [2, 9]: significantly increased | mRNA expression of collagen type X gene (RT-PCR, normalized to 18S rRNA) vs control group [2, 10]: significantly increased | mRNA expression of ALP gene (RT-PCR, normalized to 18S rRNA) vs control group [3, 9]: significantly increased | mRNA expression of ALP gene (RT-PCR, normalized to 18S rRNA) vs control group [3, 10]: significantly increased | Percentage change of mRNA expression of collagen type II by quantitative real-time PCR [4, 11]: 7.3 ± 1.2 % | Percentage change of mRNA expression of collagen type II by quantitative real-time PCR [4, 12]: 1.0 ± 0.4 % | Percentage change of mRNA expression of collagen type II by quantitative real-time PCR [4, 13]: 3.0 ± 0.9 % | Percentage change of mRNA expression of collagen type X by quantitative real-time PCR [5, 11]: 398.0 ± 26.3 % | Percentage change of mRNA expression of collagen type X by quantitative real-time PCR [5, 13]: 335.0 ± 1.4 % | Percentage change of mRNA expression of ALP by quantitative real-time PCR [6, 11]: 175.8 ± 13.5% | Percentage change of mRNA expression of ALP by quantitative real-time PCR [6, 12]: 31,900.0 ± 4.7 % | Percentage change of mRNA expression of ALP by quantitative real-time PCR [6, 13]: 735.6 ± 3.2 % | increase of cell size as compared to the control cultures [7]: 26% | cell size of articular chondrocytes (relative intensity in forward scatter) ([7]; mean ± SEM, control cultures 404.41±1.45, p<0.01): 509.20±1.93 | apoptotic rate of articular chondrocytes (TUNEL stained / DAPI stained cells) vs control cultures [8]: significantly increased
